From ChEMBL document CHEMBL1157706, “Inhibitors of human tyrosyl-DNA phospodiesterase (hTdp1) developed by virtual screening using ligand-based pharmacophores” (Bioorg Med Chem, 2010)

How the values were obtained:
[1] = target: T1, Tyrosyl-DNA phosphodiesterase 1 (Homo sapiens, UniProt Q9NUW8); assay: Inhibition of human tyrosyl-DNA phosphodiesterase 1 after 30 mins by alpha high throughput screening assay in presence of 0.01% Tween-20
[2] = target: T1, Tyrosyl-DNA phosphodiesterase 1; assay: Inhibition of human tyrosyl-DNA phosphodiesterase 1 after 30 mins by alpha high throughput screening assay in presence of 0.05% Tween-20
[3] = target: T1, Tyrosyl-DNA phosphodiesterase 1; assay: Inhibition of human tyrosyl-DNA phosphodiesterase 1 after 30 mins by alpha high throughput screening assay

T1 sequence (Q9NUW8 whole entry): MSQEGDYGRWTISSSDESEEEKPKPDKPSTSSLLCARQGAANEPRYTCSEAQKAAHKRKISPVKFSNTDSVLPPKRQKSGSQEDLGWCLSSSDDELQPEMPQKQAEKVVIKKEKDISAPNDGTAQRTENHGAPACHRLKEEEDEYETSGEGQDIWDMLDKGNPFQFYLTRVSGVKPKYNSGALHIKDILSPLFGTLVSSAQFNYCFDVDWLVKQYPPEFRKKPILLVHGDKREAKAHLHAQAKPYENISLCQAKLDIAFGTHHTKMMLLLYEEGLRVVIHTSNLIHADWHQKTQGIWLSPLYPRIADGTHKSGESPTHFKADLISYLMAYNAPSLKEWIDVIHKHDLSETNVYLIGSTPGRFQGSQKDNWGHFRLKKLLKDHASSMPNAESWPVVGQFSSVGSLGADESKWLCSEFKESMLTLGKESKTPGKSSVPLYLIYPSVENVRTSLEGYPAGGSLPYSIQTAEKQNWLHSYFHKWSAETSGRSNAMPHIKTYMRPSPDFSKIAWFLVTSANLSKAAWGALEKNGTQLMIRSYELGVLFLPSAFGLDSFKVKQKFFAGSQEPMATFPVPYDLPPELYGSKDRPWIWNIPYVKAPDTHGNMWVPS

SMILES	IC50 [1]	IC50 [2]	IC50 [3]
COc1cc(/C=C/C(=O)OC(C(=O)N2CCCCC2)c2ccccc2)ccc1O (stereo not drawn)	79.4 µM	70.8 µM	
O=c1c2ccccc2c2ccccc2c(=O)n1-c1cccc2c1ccc1c3ccccc3ccc21			5 µM
CCOc1cccc2cc(C(=O)OCC(=O)c3c[nH]c4ccccc34)c(=O)oc12	14.1 µM	22.4 µM	
O=C(/C=C/c1ccc(C(F)(F)F)cc1)OC(C(=O)NC1CC1)c1ccccc1 (stereo not drawn)	31.6 µM	44.7 µM	
O=C(OCc1cn2ccccc2n1)c1c2c(nc3ccccc13)CCC2	35.5 µM	50.1 µM	
CCOC(=O)CN(C(=O)COC(=O)Cc1c[nH]c2ccccc12)c1ccc(F)cc1	7.94 µM	11.2 µM	
Fc1cccc(Cl)c1/C=N/N=C1c2ccccc2-c2ccccc21			14 µM

Now from value to compound, other results behind:

IC50 [1]	IC50 [2]	SMILES	IC50 [3]
44.7 µM	50.1 µM	CCOC(=O)c1sc(N2C(=O)c3oc4ccc(F)cc4c(=O)c3C2c2ccc(C)cc2)nc1C (stereo not drawn)	
44.7 µM	89.1 µM	COC(=O)c1ccc(COc2ccc(C3Nc4ccccc4C(=O)N3C3CC3)cc2OC)cc1 (stereo not drawn)	
100 µM	79.4 µM	Cc1cc(C)nc(N/C=C(\C#N)C(=O)c2cccc(CSc3ccccc3)c2)n1	
